Experimental data taken from patent US20260078103A1, “ISOQUINOLONES AS PI3K INHIBITORS” (OnKure, Inc., priority 2022, published 2026).
Read-outs that look alike come from different tables or passages of the source.

How the values were obtained:
Type in all cases: cell-based
[1] = system: T47D cells expressing mutant PI3Ka (H1047R); test: In vitro cell proliferation, T47D cells (CellTiter-Glo); details: inhibition of proliferation, read-out: Avg T-47D EC50
Outline: (§1)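 Proliferation was read by CellTiter-Glo luminescence after 72 h of exposure to 10-point compound dilutions at 37 °C and 5% CO2. T47D (RPMI, 10% FBS, insulin 0.2 units/mL) and SKBR3 (McCoys 5a, 10% FBS) cells were seeded at 1,500 cells/well. EC50 was fitted from inhibition relative to DMSO and 10 uM Alpelisib.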

[2] = system: SKBR3 cells express WT PI3Ka; test: In vitro cell proliferation, SKBR3 cells (CellTiter-Glo); details: inhibition of proliferation
Outline: as §1

[3] = system: phosphorylation of AKT (pAKT) in T47D cells expressing mutant PI3Ka (H1047R); test: In vitro cell pAKT (Ser473) HTRF, T47D cells; details: cellular pAKT, T47D cells, mutant PI3Ka (H1047R), 6 hours, read-out: Avg T-47D IC50
Outline: (§2)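 pAKT (Ser473) was quantified by HTRF in lysates from cells exposed 6 h at 37 °C to 10-point compound series, with T47D in insulin-supplemented RPMI/10% FBS and SKBR3 in McCoy's 5a/10% FBS. Controls: 0.1% DMSO (high) and 10 uM alpelisib (low). IC50 from sigmoidal curve fitting.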

[4] = system: phosphorylation of AKT (pAKT) in SKBR3 cells express WT PI3Ka; test: In vitro cell pAKT (Ser473) HTRF, SKBR3 cells; details: cellular pAKT
Outline: as §2

EC50 ([1]; Homo sapiens, T47D, 72 h) | EC50 ([2]; Homo sapiens, SK-BR-3, 72 h) | IC50 ([3]; Homo sapiens, T47D, 6 h) | IC50 ([4]; Homo sapiens, SK-BR-3, 6 h) | EC50 ([1]; 72 hours) | EC50 ([2]; 72 hours) | IC50 [3] | IC50 ([4]; 6 hours) | Structure (SMILES)
1 to 500 nM | 2000 to 15000 nM | 1 to 500 nM | 2000 to 15000 nM |  |  |  |  | Cc1cnc(N2CCN(c3cc4c([C@@H](C)Nc5ccccc5C(=O)O)cc(F)cc4c(=O)n3C)CC2)s1 [Example 467]
1 to 500 nM | > 15000 nM | 1 to 500 nM | 2000 to 15000 nM |  |  |  |  | Cc1ncc(N2CCN(c3cc4c([C@@H](C)Nc5ccccc5C(=O)O)cc(F)cc4c(=O)n3C)CC2)s1 [Example 478]
1 to 500 nM | 2000 to 15000 nM | 1 to 500 nM | 500 to 2000 nM |  |  |  |  | Cc1cc([C@@H](C)Nc2ccccc2C(=O)O)c2cc(N3CCN(c4cccnc4C)CC3)n(C)c(=O)c2c1 [Example 206]
 |  |  |  | 1 to 500 nM | > 15000 nM | 1 to 500 nM | 2000 to 15000 nM | Cc1cc(C(C)Nc2ccccc2C(=O)O)c2cc(N3CCC4(CCCCO4)CC3)n(C)c(=O)c2c1 (single isomer, unassigned) [Example 168]
> 15000 nM | > 15000 nM | > 15000 nM | > 15000 nM |  |  |  |  | Cc1cc(C(C)Nc2ccccc2C(=O)O)c2cc(N3CCn4c(C)nnc4C3)n(C)c(=O)c2c1 (centres unmarked) [Example 58]
 |  |  |  | 1 to 500 nM | > 15000 nM | 1 to 500 nM | > 15000 nM | C[C@@H](Nc1ccccc1C(=O)O)c1cc(F)cc2c(=O)n(C)c(C3C[C@@H]3C(F)F)cc12 (single isomer, unassigned) [Example 489]
500 to 2000 nM | > 15000 nM | 1 to 500 nM | > 15000 nM |  |  |  |  | Cc1cc([C@@H](C)Nc2ccccc2C(=O)O)c2cc(-c3ccc4c(c3)OC(F)(F)O4)n(C)c(=O)c2c1 [Example 330]
500 to 2000 nM | > 15000 nM | 500 to 2000 nM | > 15000 nM |  |  |  |  | C[C@@H](Nc1cccc(F)c1C(=O)O)c1cc(F)cc2c(=O)n(C)c(-c3cc(F)c4nn(C)cc4c3)cc12 [Example 484]
1 to 500 nM | > 15000 nM | 1 to 500 nM | > 15000 nM |  |  |  |  | C[C@@H](Nc1ccccc1C(=O)O)c1cc(F)cc2c(=O)n(C)c(-c3cnc(-c4ccc(F)cn4)c(F)c3)cc12 [Example 378]
 |  |  |  | 1 to 500 nM | 2000 to 15000 nM | 1 to 500 nM | 2000 to 15000 nM | Cc1cc(C(C)Nc2ccccc2C(=O)O)c2cc(N3CC4CCC(C4)C3)n(C)c(=O)c2c1 (single isomer, unassigned) [Example 11, 2-((1-(3-(3-azabicyclo[3.2.1]octan-3-yl)-2,7-dimethyl-1-oxo-1,2-dihydroisoquinolin-5-yl)ethyl)amino)benzoic acid]
1 to 500 nM | > 15000 nM | 1 to 500 nM | 2000 to 15000 nM |  |  |  |  | C[C@@H](Nc1cccc(F)c1C(=O)O)c1cc(F)cc2c(=O)n(C)c(N3CCN(c4cnn(C(C)(C)C#N)c4)CC3)cc12 [Example 424]
500 to 2000 nM | > 15000 nM | 500 to 2000 nM | > 15000 nM |  |  |  |  | COCCC(=O)N1CCN(c2cc3c(C(C)Nc4ccccc4C(=O)O)cc(C)cc3c(=O)n2C)CC1 (centres unmarked) [Example 95]
500 to 2000 nM | > 15000 nM | 1 to 500 nM | > 15000 nM |  |  |  |  | C[C@@H](Nc1ccccc1C(=O)O)c1cc(F)cc2c(=O)n(C)c(-c3cc(F)c4nn(C(F)F)cc4c3)cc12 [Example 496]
 |  |  |  | 1 to 500 nM | > 15000 nM | 1 to 500 nM | > 15000 nM | Cc1cc([C@@H](C)Nc2cccc(F)c2C(=O)O)c2cc(C3C[C@H]3C)n(C)c(=O)c2c1 (single isomer, unassigned) [Example 356]
1 to 500 nM |  | 1 to 500 nM | > 15000 nM |  | 2000 to 15000 nM |  |  | Cc1cc([C@@H](C)Nc2ccccc2C(=O)O)c2cc(C3C[C@H]3C)n(C)c(=O)c2c1 (single isomer, unassigned) [Example 310]
500 to 2000 nM | > 15000 nM | 500 to 2000 nM | > 15000 nM |  |  |  |  | C[C@@H](Nc1ccccc1C(=O)O)c1cc(F)cc2c(=O)n(C)c(I)cc12 [Example 559]
1 to 500 nM | > 15000 nM | 1 to 500 nM | > 15000 nM |  |  |  |  | Cc1cc([C@@H](C)Nc2ccccc2C(=O)O)c2cc(-c3cnc(C(C)(F)F)nc3)n(C)c(=O)c2c1 [Example 317]
 | > 15000 nM |  | > 15000 nM | 2000 to 15000 nM |  | 2000 to 15000 nM |  | Cc1cc([C@@H](C)Nc2cccc(F)c2C(=O)O)c2cc(C3CC3(F)F)n(C)c(=O)c2c1 (single isomer, unassigned) [Example 420]

EC50 ([1]; Homo sapiens, T47D, 72 h) | EC50 ([2]; Homo sapiens, SK-BR-3, 72 h) | IC50 ([3]; Homo sapiens, T47D, 6 h) | IC50 ([4]; Homo sapiens, SK-BR-3, 6 h) | EC50 ([1]; 72 hours) | EC50 ([2]; 72 hours) | IC50 [3] | IC50 ([4]; 6 hours) | Structure (SMILES)
 |  |  |  | 1 to 500 nM | > 15000 nM | 1 to 500 nM | 2000 to 15000 nM | Cc1cc([C@@H](C)Nc2ccc(F)cc2C(=O)O)c2cc(N3CCN(CC(F)(F)F)CC3)n(C)c(=O)c2c1 [Example 259]
 |  |  |  | 1 to 500 nM | > 15000 nM | 1 to 500 nM | > 15000 nM | CC(Nc1ccccc1C(=O)O)c1cc(F)cc2c(=O)n(C)c(-c3ccc(OC4CC(F)C4)nc3)cc12 (centres unmarked) [Example 448]
 |  |  |  | 2000 to 15000 nM | > 15000 nM | > 15000 nM | > 15000 nM | Cc1cc(C(C)Nc2ccccc2C(=O)O)c2cc(N3C[C@@H]4CN(CC(F)(F)F)C[C@H]4C3)n(C)c(=O)c2c1 (single isomer, unassigned) [Example 108]
1 to 500 nM | > 15000 nM | 1 to 500 nM | > 15000 nM |  |  |  |  | Cc1cc([C@@H](C)Nc2ccccc2C(=O)O)c2cc(-c3cnc(OC4CC4)c(F)c3)n(C)c(=O)c2c1 [Example 281]
 |  |  |  | 1 to 500 nM | 2000 to 15000 nM | 1 to 500 nM | 2000 to 15000 nM | C#Cc1ccc(N[C@H](C)c2cc(F)cc3c(=O)n(C)c(-c4ccc(OCC(F)(F)F)nc4)cc23)c(C(=O)O)n1 [Example 542]
 |  |  |  | 500 to 2000 nM | > 15000 nM | 2000 to 15000 nM | > 15000 nM | Cc1cc(C(C)Nc2ccccc2C(=O)O)c2cc(N3CCN4C(=O)CCC4C3)n(C)c(=O)c2c1 (single isomer, unassigned) [Example 124]
 |  |  |  | 1 to 500 nM | > 15000 nM | 1 to 500 nM | > 15000 nM | Cc1cc(C(CF)Nc2ccccc2C(=O)O)c2cc(N3CCN(CC(F)(F)F)CC3)n(C)c(=O)c2c1 (single isomer, unassigned) [Example 38, 2-((1-(2,7-dimethyl-1-oxo-3-(4-(2,2,2-trifluoroethyl)piperazin-1-yl)-1,2-dihydroisoquinolin-5-yl)-2-fluoroethyl)amino)benzoic acid]
 | > 15000 nM |  | > 15000 nM | > 15000 nM |  | > 15000 nM |  | COC1(C)CN(c2cc3c(C(C)Nc4ccccc4C(=O)O)cc(C)cc3c(=O)n2C)C1 (single isomer, unassigned) [Example 183]
500 to 2000 nM | > 15000 nM | 1 to 500 nM | > 15000 nM |  |  |  |  | C[C@@H](Nc1ccccc1C(=O)O)c1cc(F)cc2c(=O)n(C)c(-c3cnc(Oc4cnn(C(F)F)c4)c(F)c3)cc12 [Example 48, (R)-2-((1-(3-(6-((1-(difluoromethyl)-1H-pyrazol-4-yl)oxy)-5-fluoropyridin-3-yl)-7-fluoro-2-methyl-1-oxo-1,2-dihydroisoquinolin-5-yl)ethyl)amino)benzoic acid]
 |  |  |  | 1 to 500 nM | > 15000 nM | 1 to 500 nM | > 15000 nM | Cc1cc(C(C)Nc2ccccc2C(=O)O)c2c(F)c(C3=CCN(CC(F)(F)F)CC3)n(C)c(=O)c2c1 (single isomer, unassigned) [Example 359]
2000 to 15000 nM | > 15000 nM | 500 to 2000 nM | > 15000 nM |  |  |  |  | Cc1ccc(-c2cc3c(C(C)Nc4ccccc4C(=O)O)cc(C)cc3c(=O)n2C)nc1 (centres unmarked) [Example 74]
500 to 2000 nM | > 15000 nM | 500 to 2000 nM | > 15000 nM |  |  |  |  | Cc1cc([C@@H](C)Nc2ccccc2C(=O)O)c2cc(Cl)n(C)c(=O)c2c1 [Example 400]
500 to 2000 nM | 2000 to 15000 nM | 500 to 2000 nM | > 15000 nM |  |  |  |  | Cc1cc(C(C)Nc2ccc(Cl)nc2C(=O)O)c2cc(N3CCC(C)(C)CC3)n(C)c(=O)c2c1 (centres unmarked) [Example 88]
1 to 500 nM | 2000 to 15000 nM | 1 to 500 nM | 2000 to 15000 nM |  |  |  |  | Cc1cc([C@@H](C)Nc2ccccc2C(=O)O)c2cc(N3CCN(c4ccn(C)n4)CC3)n(C)c(=O)c2c1 [Example 232]
1 to 500 nM | > 15000 nM | 1 to 500 nM | > 15000 nM |  |  |  |  | Cc1cc([C@@H](C)Nc2ccccc2C(=O)O)c2cc(-c3ccc(C4CC4)nc3)n(C)c(=O)c2c1 [Example 227]
 | > 15000 nM |  | > 15000 nM | > 15000 nM |  | > 15000 nM |  | Cc1cc(C(C)Nc2ccccc2C(=O)O)c2cc(N3CC(C)(O)C3)n(C)c(=O)c2c1 (single isomer, unassigned) [Example 181]
 |  |  |  | 500 to 2000 nM | > 15000 nM | 500 to 2000 nM | > 15000 nM | Cc1ccc(C2CN(c3cc4c([C@@H](C)Nc5cccc(F)c5C(=O)O)cc(F)cc4c(=O)n3C)C2)cn1 [Example 409]
